Where two headings read alike, the source gives them in different places. One block for each compound: values may come before it.
Legend:
[1] = test system: imiquimod-induced psoriasis model; assay: Imiquimod-induced psoriasis model in mice; conditions: for Clinical Score (mean ± standard error) / Skin Thickness Score (mean ± standard error): Calcitriol 75 mg/mice topical QD
TRKA = TRKA (Homo sapiens (Human), UniProt P04629); assay: Inhibitory activity on TRKA (ADP-Glo Kinase Assay)
TRKB = TRKB (Homo sapiens (Human), UniProt Q16620); assay: Inhibitory activity on TRKB (ADP-Glo Kinase Assay)
Chain of TRKB (Q16620 32-822): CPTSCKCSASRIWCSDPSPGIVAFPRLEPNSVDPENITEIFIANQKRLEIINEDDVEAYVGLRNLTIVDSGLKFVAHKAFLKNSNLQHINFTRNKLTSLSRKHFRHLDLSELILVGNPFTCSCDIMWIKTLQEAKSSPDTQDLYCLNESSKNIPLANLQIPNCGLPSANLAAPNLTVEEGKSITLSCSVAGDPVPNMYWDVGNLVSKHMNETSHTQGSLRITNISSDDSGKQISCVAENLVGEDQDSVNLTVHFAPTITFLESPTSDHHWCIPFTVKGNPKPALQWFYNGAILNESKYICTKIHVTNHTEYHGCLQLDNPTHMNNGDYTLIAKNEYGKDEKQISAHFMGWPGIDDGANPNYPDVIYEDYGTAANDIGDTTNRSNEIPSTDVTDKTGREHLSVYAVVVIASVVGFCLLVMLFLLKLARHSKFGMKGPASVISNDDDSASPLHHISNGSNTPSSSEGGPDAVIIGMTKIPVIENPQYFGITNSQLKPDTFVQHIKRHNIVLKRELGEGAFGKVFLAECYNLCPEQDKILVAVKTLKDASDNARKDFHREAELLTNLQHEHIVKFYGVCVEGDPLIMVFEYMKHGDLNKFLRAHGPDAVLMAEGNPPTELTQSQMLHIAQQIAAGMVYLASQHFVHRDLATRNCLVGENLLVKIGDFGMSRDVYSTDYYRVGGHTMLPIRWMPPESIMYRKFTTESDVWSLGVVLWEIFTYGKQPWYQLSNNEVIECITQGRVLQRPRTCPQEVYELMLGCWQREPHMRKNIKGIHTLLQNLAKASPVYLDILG

TRKC = TRKC (Homo sapiens (Human), UniProt Q16288); assay: Inhibitory activity on TRKC (ADP-Glo Kinase Assay)
Chain of TRKC (Q16288 32-839): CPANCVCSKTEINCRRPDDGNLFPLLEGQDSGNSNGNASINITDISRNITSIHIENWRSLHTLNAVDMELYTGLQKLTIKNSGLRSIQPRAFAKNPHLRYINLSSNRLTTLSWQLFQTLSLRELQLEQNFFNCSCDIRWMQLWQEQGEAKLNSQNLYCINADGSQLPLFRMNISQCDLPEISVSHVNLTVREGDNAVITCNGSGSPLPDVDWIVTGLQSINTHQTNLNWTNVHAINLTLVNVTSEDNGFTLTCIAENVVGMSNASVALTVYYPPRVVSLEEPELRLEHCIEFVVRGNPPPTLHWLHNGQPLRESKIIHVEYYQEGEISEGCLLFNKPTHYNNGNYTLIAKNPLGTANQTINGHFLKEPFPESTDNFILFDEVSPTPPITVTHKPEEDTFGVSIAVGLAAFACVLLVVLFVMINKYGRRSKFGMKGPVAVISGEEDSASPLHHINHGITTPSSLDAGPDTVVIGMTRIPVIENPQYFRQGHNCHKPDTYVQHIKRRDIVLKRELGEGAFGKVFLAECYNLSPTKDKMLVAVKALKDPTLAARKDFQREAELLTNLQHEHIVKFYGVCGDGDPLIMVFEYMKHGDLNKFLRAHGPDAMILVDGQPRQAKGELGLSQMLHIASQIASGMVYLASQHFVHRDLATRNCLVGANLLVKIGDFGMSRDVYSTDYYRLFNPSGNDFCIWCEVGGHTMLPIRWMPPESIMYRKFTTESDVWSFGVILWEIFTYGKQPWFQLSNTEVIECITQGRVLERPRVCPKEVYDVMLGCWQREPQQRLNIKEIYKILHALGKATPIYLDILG

acne model in rabbits = assay: Acne model in rabbits (coal tar + Propionibacterium acnes); assay type: in vivo, New Zealand white rabbits; conditions: 1% Clindamycin gel 0.5 g/kg once per day
Protocol: Modeling: Rabbits were acclimated for 7 days. On the right inner ear canal exit of the rabbits, a 2 cm×2 cm area was treated with 2% coal tar solution once a day, 0.5-1 mL each time, for 26 consecutive days. […] On the 8th day, Propionibacterium acnes was injected intradermally at 3-4 sites on the rabbit ears, 50 μl per rabbit, injected every other day for a total of 5 times. Treatment was started randomly on the 9th day after the last injection.
Rabbits were treated according to their groups. The blank group received no treatment. […] The model group received an equal amount of vehicle treatment, with the same application method and duration as the test drug groups.
Twenty-four hours after the last administration, a 2.8 cm punch was used to prepare ear samples at the application site, and their weight was measured. The ears from the modeling site were fixed with 4% paraformaldehyde, and consecutive sections (3 slices) were taken from the same location for HE staining and histopathological analysis. At the same time, the area of 3 hair follicles and the diameter of 3 sebaceous glands were measured to calculate the average values. Blood was drawn from the heart and centrifuged to obtain serum, and the levels of interleukin-1α (IL-1α), interleukin-6 (IL-6), and dihydrotestosterone (DHT) in serum were determined according to the ELISA kit instructions.
Tissue samples from animal ears were excised, fixed in 4% paraformaldehyde, dehydrated, embedded in paraffin, and sectioned and HE stained for observation of histopathological morphology changes. The tissue samples were fixed in 4% paraformaldehyde at normal temperature and the taken ears tissue was rinsed with running water for several hours, dehydrated through a series of ethanol solutions (70%, 80%, 90%), and then treated with a mixture of pure alcohol and xylene for 15 minutes, followed by xylene I for 15 minutes and xylene II for 15 minutes (until transparent). The tissue was then placed in a mixture of xylene and paraffin at a volume ratio of 1:1 for 15 minutes, followed by immersion with paraffin I and paraffin II each for 50-60 minutes. The tissue was embedded in paraffin and sectioned, and the sections were baked, dewaxed and hydrated in distilled water. The resulting sections were then stained in hematoxylin solution for 3 minutes, differentiated in a hydrochloric acid alcohol solution for 15 seconds, slightly washed, blued in a return blue solution for 15 seconds, rinsed with running water, stained with eosin for 3 minutes, rinsed with running water, dehydrated, cleared, and mounted for microscopic examination.
A double-antibody one-step sandwich Enzyme-linked Immunosorbent Assay (ELISA) ket was used. A capture antibody for the mouse target indicators was pre-coated onto microplate wells, to which samples, standards, and HRP-labeled detection antibodies were added sequentially, followed by incubation and thorough washing. TMB substrate was added for color development, which turned into blue in the presence of peroxidase and then into yellow after acidification. The depth of color was positively correlated with the concentration of the target in the samples. The absorbance (OD450 value) was measured at a wavelength of 450 nm using the microplate reader, and the sample concentration was calculated.

[2] = test system: ovalbumin-induced asthma model in mice; assay: Ovalbumin-induced asthma model in mice; assay type: in vivo, Balb/c mice; conditions: vs. vehicle (model) group; nasal administration BID 5 days: MDI-1228 3 mg/kg, MDI-1288 3 mg/kg, MDI-1233 1, 3, 10 mg/kg; dexamethasone 1 mg/kg gavage QD
Protocol: After 7 days of acclimatization, animals were randomly grouped based on their body weight. The experiment was divided into 8 groups, with 8 mice in each group, as detailed in the table below.
• Preparation of Immunogen: Weigh an appropriate amount of OVA, to which an appropriate amount of PBS was added, to achieve a final concentration of 0.1 mg/ml. Then, an equal volume of aluminum adjuvant was added, and the resulting mixture was mixed well, and stored at 4° C., which was prepared before use. • Preparation of Sensitizer (5% OVA): Weigh an appropriate amount of OVA, to which an appropriate amount of PBS was added, to achieve a final concentration of 5%. The resulting mixture was mixed well, and store it at 4° C. for later use, which was prepared before use. • Preparation of Vehicle: Add 200 μl of Tween 80 to 100 ml of saline, and mix it well. […] Mix it well, and store it at 4° C. for later use. […] Mix it well, and store it at 4° C. for later use. […] Mix it well, and store it at 4° C. for later use. The solution was prepared once every three days.
• Immunization: On days 0, 7, 14, and 21, 200 μl of PBS was injected intraperitoneally for the first group, and 200 μl of (10 μg) OVA/aluminum adjuvant emulsion was injected intraperitoneally for groups 2-8. • Sensitization: From days 28 to 32, the first group of animals was exposed to nebulized PBS in a nebulization box for 20 minutes, and the groups 2-8 were exposed to nebulized 5% OVA in a nebulization box for 20 minutes. And then, they were removed. The sensitization was conducted at 12:30 PM daily. • Administration: The medicine was administrated twice a day at 9 AM and 5 PM via nasal drops. Dexamethasone (Dex) was administered by gavage once a day at 9 AM.
Serum IgE: Blood was collected from the orbits of animals after carbon dioxide euthanasia, and plasma was separated and stored at −40 degrees for plasma IgE detection.
Bronchoalveolar Lavage Fluid (BALF) Cell Count: An appropriate amount of foetal bovine serum was weighted and dissolved in PBS to a final concentration of 1%. After orbital blood collection, the trachea was exposed, and a 1 ml syringe needle was replaced with a mouse gavage needle. 0.8 ml of the lavage fluid was aspirated from the syringe and the lungs were lavaged three times. The lavage fluids were collected, and centrifuged at 1000 rpm for 10 minutes, and the supernatant was collected and stored at −40 degrees Celsius. Cells were resuspended with 1 ml of PBS and counted. 100 ul of centrifuged smear was taken and stained with Diff quick and the number of eosinophils, basophils, lymphocytes and macrophages were recorded.
Bronchoalveolar Lavage Fluid IL-5: Bronchoalveolar lavage fluid was collected to detect IL-5.
Pathological scoring criteria were: • A) 0 points: No lymphocyte infiltration; • B) 1 point: Trace lymphocyte infiltration; • C) 2 points: Mild lymphocyte infiltration; • D) 3 points: Moderate lymphocyte infiltration; • E) 4 points: Severe lymphocyte infiltration; • After scoring, the results were calculated and analyzed.

Chain of TRKA (P04629 33-796 limits assumed): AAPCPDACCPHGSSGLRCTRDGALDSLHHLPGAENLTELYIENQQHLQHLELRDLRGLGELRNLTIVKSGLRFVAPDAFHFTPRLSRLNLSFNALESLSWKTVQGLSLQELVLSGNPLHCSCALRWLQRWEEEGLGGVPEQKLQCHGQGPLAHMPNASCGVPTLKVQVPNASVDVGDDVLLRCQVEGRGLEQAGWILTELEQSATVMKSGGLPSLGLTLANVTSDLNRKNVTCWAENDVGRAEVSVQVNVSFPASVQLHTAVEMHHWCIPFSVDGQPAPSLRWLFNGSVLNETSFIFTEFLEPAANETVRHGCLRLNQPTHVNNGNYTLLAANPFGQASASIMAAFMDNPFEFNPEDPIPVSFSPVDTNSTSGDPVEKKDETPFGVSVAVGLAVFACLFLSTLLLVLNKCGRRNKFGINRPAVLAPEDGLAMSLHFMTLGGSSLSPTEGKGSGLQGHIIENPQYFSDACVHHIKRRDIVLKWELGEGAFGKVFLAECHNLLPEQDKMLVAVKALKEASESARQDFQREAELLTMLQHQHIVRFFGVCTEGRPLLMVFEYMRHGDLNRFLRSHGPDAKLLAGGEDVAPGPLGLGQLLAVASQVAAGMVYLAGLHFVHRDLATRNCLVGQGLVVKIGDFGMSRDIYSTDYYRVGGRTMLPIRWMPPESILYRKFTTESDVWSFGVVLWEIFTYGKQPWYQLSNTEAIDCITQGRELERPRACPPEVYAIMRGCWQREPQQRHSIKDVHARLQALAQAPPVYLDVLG

Structure (SMILES): C=C1/C(=C\C=C2/CCC[C@]3(C)[C@@H]([C@H](C)CCCC(C)(C)O)CC[C@@H]23)C[C@@H](O)C[C@@H]1O [Calcitriol]
Clinical Score (mean ± standard error) ([1]; Day 0): 0.0 ± 0.00
Skin Thickness Score (mean ± standard error) ([1]; Day 0): 0.0 ± 0.00
Clinical Score (mean ± standard error) ([1]; Day 1): 0.2 ± 0.13
Skin Thickness Score (mean ± standard error) ([1]; Day 1): 0.0 ± 0.00
Clinical Score (mean ± standard error) ([1]; Day 2): 1.2 ± 0.13
Skin Thickness Score (mean ± standard error) ([1]; Day 2): 0.0 ± 0.00
Clinical Score (mean ± standard error) ([1]; Day 3): 3.1 ± 0.28
Skin Thickness Score (mean ± standard error) ([1]; Day 3): 0.7 ± 0.15
Clinical Score (mean ± standard error) ([1]; Day 4): 4.3 ± 0.26
Skin Thickness Score (mean ± standard error) ([1]; Day 4): 1.2 ± 0.20
Clinical Score (mean ± standard error) ([1]; Day 5): 2.9 ± 0.18
Skin Thickness Score (mean ± standard error) ([1]; Day 5): 0.8 ± 0.20
Clinical Score (mean ± standard error) ([1]; Day 6): 2.5 ± 0.17
Skin Thickness Score (mean ± standard error) ([1]; Day 6): 0.5 ± 0.17
Clinical Score (mean ± standard error) ([1]; Day 7): 2.0 ± 0.00
Skin Thickness Score (mean ± standard error) ([1]; Day 7): 0.0 ± 0.00
Inhibition percentage of skin thickness score AUC relative to vehicle control group ([1]; calcitriol 75 mg/mice QD): 64.2%
Skin histopathology ([1]; calcitriol 75 mg/mice QD): a trend of mitigation

Structure (SMILES): CCc1cc(O)c(F)cc1-c1ccc2c(-c3nc4c([nH]3)CN(C(=O)c3cnc(N5CCOCC5)cn3)C4)n[nH]c2c1 [MDI-201, (2-(6-(2-ethyl-5-fluoro-4-hydroxyphenyl)-1H-indazol-3-yl)-4,6-dihydropyrrolo[3,4-d]imidazol-5(1H)-yl)(5-morpholinepyrazin-2-yl)ketone]
IC50 (TRKA): 5.76 nM
IC50 (TRKB): 6.14 nM
IC50 (TRKC): 2.2 nM

Structure (SMILES): CCc1cc(O)c(F)cc1-c1ccc2c(-c3nc4c([nH]3)CN(S(=O)(=O)C3CC3)C4)n[nH]c2c1 [MDI-218, 4-(3-(5-(cyclopropanesulfonyl)-1,4,5,6-tetrahydropyrrolo[3,4-d]imidazol-2-yl)-1H-indazol-6-yl)-5-ethyl-2-fluorophenol]
IC50 (TRKA; read-out: TRKA IC50, ATP 5 μM): 9.97 nM
IC50 (TRKB; read-out: TRKB IC50, ATP 5 μM): 32.3 nM
IC50 (TRKC; read-out: TRKC IC50, ATP 5 μM): 5.1 nM

Structure (SMILES): CCc1cc(O)c(F)cc1-c1ccc2c(-c3nc4c([nH]3)CN(C(=O)N3CCCC3)C4)n[nH]c2c1 [MDI-231, (2-(6-(2-ethyl-5-fluoro-4-hydroxyphenyl)-1H-indazol-3-yl)-4,6-dihydropyrrolo[3,4-d]imidazol-5-(1H)-yl)(pyrrolidin-1-yl)ketone]
IC50 (TRKA): 2.82 nM
IC50 (TRKB): 5.86 nM
IC50 (TRKC): 1.49 nM

Structure (SMILES): CCC[C@@H]1C[C@@H](C(=O)N[C@@H]([C@H]2O[C@H](SC)[C@H](O)[C@@H](O)[C@H]2O)[C@H](C)Cl)N(C)C1 [clindamycin, reference compound]
Hair follicle area (acne model in rabbits): not improved
Rabbit ear weight (acne model in rabbits; 2 weeks): did not reduce ear weight

Structure (SMILES): C[C@@H]1C[C@H]2[C@@H]3CCC4=CC(=O)C=C[C@]4(C)[C@@]3(F)[C@@H](O)C[C@]2(C)[C@@]1(O)C(=O)CO [dexamethasone, reference compound]
Bronchoalveolar lavage fluid IL-5 expression level [2]: significantly reduced the expression of IL-5
Inflammatory cell count in bronchoalveolar lavage fluid [2]: significantly reduced the Inflammatory Cell Count
Lung tissue inflammatory cell infiltration (HE pathology) [2]: significantly reduced the lung tissue inflammatory cell infiltration
Serum IgE expression level [2]: significantly reduced the expression of IgE

More lines, now with the values ahead:

IC50 (TRKA): 9.01 nM
IC50 (TRKB): 30.4 nM
IC50 (TRKC): 6.32 nM
Structure (SMILES): CCc1cc(O)c(F)cc1-c1ccc2c(-c3nc4c([nH]3)CN(C(=O)N3CCCCC3)C4)n[nH]c2c1 [MDI-233]

IC50 (TRKA): 1.07 nM
IC50 (TRKB): 1.27 nM
IC50 (TRKC): 0.65 nM
Structure (SMILES): CCc1cc(O)c(F)cc1-c1ccc2c(-c3nc4c([nH]3)CN(C(=O)N3CCOCC3)C4)n[nH]c2c1 [MDI-234, (2-(6-(2-ethyl-5-fluoro-4-hydroxyphenyl)-1H-indazol-3-yl)-4,6-dihydropyrrolo[3,4-d]imidazol-5-(1H)-yl)(morpholino)ketone]

IC50 (TRKA): 0.23 nM
IC50 (TRKB): 1.06 nM
IC50 (TRKC): 0.2 nM
Structure (SMILES): CCc1cc(O)c(F)cc1-c1ccc2c(-c3nc4c([nH]3)CN(C(=O)N3CCN(CC)CC3)C4)n[nH]c2c1 [MDI-236, (2-(6-(2-ethyl-5-fluoro-4-hydroxyphenyl)-1H-indazol-3-yl)-4,6-dihydropyrrolo[3,4-d]imidazol-5-(1H)-yl)(4-ethylpiperazin-1-yl)ketone]

IC50 (TRKA; read-out: TRKA IC50, ATP 5 μM): 12 nM
IC50 (TRKB; read-out: TRKB IC50, ATP 5 μM): 3.58 nM
IC50 (TRKC; read-out: TRKC IC50, ATP 5 μM): 3.77 nM
Structure (SMILES): CCc1cc(O)c(F)cc1-c1ccc2c(-c3nc4c([nH]3)CN(C(=O)NCCO)C4)n[nH]c2c1 [MDI-248, 2-(6-(2-ethyl-5-fluoro-4-hydroxyphenyl)-1H-indazol-3-yl)-N-(2-hydroxylethyl)-4,6-dihydropyrrolo[3,4-d]imidazol-5(1H)-carboxamide]

IC50 (TRKA; read-out: TRKA IC50, ATP 5 μM): 11.4 nM
IC50 (TRKB; read-out: TRKB IC50, ATP 5 μM): 98.8 nM
IC50 (TRKC; read-out: TRKC IC50, ATP 5 μM): 13.1 nM
Structure (SMILES): CCOC(=O)N1Cc2nc(-c3n[nH]c4cc(-c5cc(F)c(O)cc5CC)ccc34)[nH]c2C1 [MDI-253, Ethyl 2-(6-(2-ethyl-5-fluoro-4-hydroxyphenyl)-1H-indazol-3-yl)-4,6-dihydropyrrolo[3,4-d]imidazol-5(1H)-carboxylate]

IC50 (TRKB; read-out: TRKB IC50, ATP 5 μM): 2.93 nM
IC50 (TRKC; read-out: TRKC IC50, ATP 5 μM): 0.72 nM
Structure (SMILES): CCc1cc(O)c(F)cc1-c1ccc2c(-c3nc4c([nH]3)CN(C(=O)N(C)C)C4)n[nH]c2c1 [MDI-257, 2-(6-(2-ethyl-5-fluoro-4-hydroxyphenyl)-1H-indazol-3-yl)-N,N-dimethyl-4,6-dihydropyrrolo[3,4-d]imidazol-5(1H)-carboxamide]
